Experimental data: patent publication US20070087977A1, “METHODS AND COMPOSITIONS FOR TREATING PAIN” (priority 2004, published 2007)
Like-named read-outs stand apart in the source and are kept apart here.

What was measured:
[1] = tested on: Healthy subjects undergoing third molar removal; test: Quercetin ameliorates CNS effects of oxycodone in an acute pain model (third molar removal); format: in vivo, human
Experimental: Opioids frequently produce adverse CNS side effects in ambulatory settings, providing a rationale for improving opioid analgesia by minimizing adverse effects. […] Healthy subjects (N=65) undergoing third molar removal are randomly allocated to receive 500 mg oral quercetin or matching placebo at 1 hr prior to surgery. […] Total Nausea and Vomiting Score (TNVS) is calculated for the time from dosing through 24 hr.

[2] = tested on: adult subjects with chronic pain; test: Human study of the effects of oral quercetin (Q) and analgesics on sedation, concentration and pain; format: in vivo
Experimental: An empiric trial on the effects of oral quercetin (Q) on sedation, concentration, and pain was conducted. Inclusion criteria included ongoing pain of at least 4/10 on the Likert scale, poor tolerance of current analgesic regimen (complaints of sedation, dizziness, inability to focus), and willingness to complete daily diaries.
Approximately 16 adult subjects with chronic pain were screened and 9 subjects were admitted to the trial. Their pain disorders included peripheral neuropathy (2), facial pain (2), cervical radiculopathy (2), lumbar spine disease (3). Their pre-existing medications included short acting opioids (Vicodin TID, Tramadol 50 mg Q4-6), high dose, long acting opioids (OxyContin 240 mg, Methadone 400 mg), Gabapentin (900 mg and 2700 mg), Ativan, Flexeril, and Soma 350 mg. Seven of the subjects were using at least two analgesic medications. Two subjects were using no current medications because of prior histories of sedation and dizziness during opioid trials.
Q (Sigma) 500 mg per gel capsule was compounded and supplied to all subjects by overnight mail. Subjects were instructed to complete daily diaries for 7 days and continue their baseline medications and regular activities. On approximately the 7th day, they were asked to begin twice daily dosing of 2 Q (1000 mg) capsules (total daily dose of Q, 2000 mg). Diaries were completed for 7 days. Individual diaries included rating sleep interference, focus, pain now, and worst pain over the prior 24 hours. Subjects were instructed that concomitant pain medications should not be altered without speaking with the investigator. Subjects were advised that they would be contacted by telephone every day or every other day to assess progress in the trial and any side effects associated with the addition of Q. At the end of the trial, patients were interviewed. They were asked to rate their satisfaction with the study medication (−2-+2) and its ability to modulate the CNS effects of their pain medications.

[3] = tested on: mdr1a (P-gP) knockout mouse; details: same doses, cited from earlier work

## O=c1c(O)c(-c2ccc(O)c(O)c2)oc2cc(O)cc(O)c12 [quercetin]
[1]; 500 mg oral quercetin + 10 mg oral oxycodone
  median time to request for a second analgesic: 120 min
[1]; 500 mg oral quercetin + 10 mg oral oxycodone, compared with placebo group
  mean pain intensity: consistently lower
[1]; prior to surgery, at 1 hr, at 4 hr
  oxycodone plasma concentrations, quercetin vs placebo group: do not differ
[2]; after taking Q, all patients, FIG. 5
  sleep rating (1 perfect sleep, 10 worst): overall improvement
[2]; after taking Q, all patients, FIG. 6
  concentration rating (1 perfect concentration, 10 worst): overall improvement
[2]; after taking Q, all patients, FIG. 7
  worst pain in the last 24 hrs (NPRS, 1 no pain, 10 worst): overall improvement
[2]; after taking Q, all patients, FIG. 8
  pain at the time the patients were called (pain now): overall improvement
[2]; all patients on opiate or MSD and modulator (Q), FIG. 15
  global assessment (scale of -2 to 2): overall improvement in their condition
[2]; opioid users taking Q
  CNS activation noted: all the 4 opioid users
  central withdrawal noted (number of opioid users): 3
[2]; scale of -2 to 2, FIG. 15
  number of patients reporting 2 in global assessment: three
  number of patients reporting -2 in global assessment: none
[2]; two patients not on baseline meds, poor tolerance of systemic medications, FIGS. 13 and 14
  pain on the scale from 1-10 (worst pain in last 24 hrs, pain at time of call): brought the pain down

## CC[C@H](C)[C@H]1O[C@]2(C=C[C@@H]1C)C[C@@H]1C[C@@H](C/C=C(\C)[C@@H](O[C@H]3C[C@H](OC)[C@@H](O[C@H]4C[C@H](OC)[C@@H](O)[C@H](C)O4)[C@H](C)O3)[C@@H](C)/C=C/C=C3\CO[C@@H]4[C@H](O)C(C)=C[C@@H](C(=O)O1)[C@]34O)O2 [avermectin]
[3]; heterozygous (+/-) mice
  sensitivity to fetal cleft palate: less sensitive
[3]; homozygous (+/+) mice
  sensitivity to fetal cleft palate: insensitive
